Source: patent US7754743B2, “Heteroarylcarbamoylbenzene derivatives” (Banyu Pharmaceutical Co., Ltd., priority 2003, dated 2010)
Like-named read-outs stand apart in the source and are kept apart here.

Target: T1, recombinant human liver GK (Homo sapiens, UniProt P35557)
T1 construct: made in house; host or cells: E. coli
T1 sequence (P35557 1-466 isoform P35557-2): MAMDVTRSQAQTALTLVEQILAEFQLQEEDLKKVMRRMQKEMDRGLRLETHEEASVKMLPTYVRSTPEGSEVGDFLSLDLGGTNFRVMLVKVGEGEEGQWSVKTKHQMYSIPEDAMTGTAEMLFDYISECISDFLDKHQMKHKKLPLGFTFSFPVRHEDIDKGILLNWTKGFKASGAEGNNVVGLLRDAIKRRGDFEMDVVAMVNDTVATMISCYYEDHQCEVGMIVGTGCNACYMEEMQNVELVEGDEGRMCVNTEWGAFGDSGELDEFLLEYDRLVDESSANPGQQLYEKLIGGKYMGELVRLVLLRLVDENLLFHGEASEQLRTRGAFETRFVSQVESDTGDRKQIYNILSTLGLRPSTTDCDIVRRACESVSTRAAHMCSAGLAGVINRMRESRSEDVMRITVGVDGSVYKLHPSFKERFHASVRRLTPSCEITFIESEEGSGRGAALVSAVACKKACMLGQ
Experiment: Glucokinase (GK) activation assay, G6PDH-coupled thio-NADH absorbance at 405 nm
Type: biochemical
Procedure: The glucokinase activity is the degree of activation of glucokinase, as determined not by direct measurement of glucose-6-phosphate, but by measurement of the amount of thio-NADH produced upon production of phosphogluconolactone from glucose-6-phosphate by the reporter enzyme glucose-6-phosphate dehydrogenase.
The recombinant human liver GK used in this assay was expressed in E. coli as FLAG fusion protein, and it was purified by […] M2 AFFINITY GEL (Sigma).
The assay was carried out using a flat-bottomed 96-well plate at 30° C. A 69 μl portion of assay buffer (25 mM Hepes Buffer: pH=7.2, 2 mM MgCl2, 1 mM ATP, 0.5 mM TNAD, 1 mM dithiothreitol) was dispensed, and either a DMSO solution of the compound or 1 μl of DMSO as a control was added. Next, 20 μl of an enzyme mixture (FLAG-GK, 20 U/ml G6PDH) precooled in ice bath was dispensed, and then 10 μl of 25 mM glucose was added as substrate and reaction was initiated (final glucose concentration=2.5 mM).
FLAG-GK was added to produce an absorbance increment of from 0.05 to 0.1 after 5 minutes in the presence of 1% DMSO.
The OD values were measured at each concentration of the evaluated compound, using the OD value of the DMSO control as 100%. The Emax (%) and EC50 (μM) values were calculated from the OD value at each concentration, and used as indices of the GK activating power of the compounds.

[1] = final glucose concentration 2.5 mM, 30° C.

Row | Structure (SMILES) | Emax | EC50 [1] | Emax (OD value of DMSO control as 100%, final glucose concentration 2.5 mM, 30° C., read-out: Emax(%))
1 | Cc1csc(NC(=O)c2cc(Oc3ccc(S(C)(=O)=O)cc3)cc(OC(C)C)c2)n1 [Production Example 1, 5-isopropoxy-3-(4-methanesulfonylphenoxy)-N-(4-methylthiazol-2-yl)-benzamide] | 957% | 250 nM | 
2 | COC(=O)NCc1ccc(Oc2cc(OC(C)C)cc(C(=O)Nc3nccs3)c2)cc1 [Production Example 59, 5-isopropoxy-3-(4-methoxycarbonylaminomethylphenoxy)-N-thiazol-2-yl-benzamide] |  | 530 nM | 936%
